From patent EP0469010B1, “COSMETIC COMPOSITION” (priority 1989, dated 1990)
Structures can show the parent of a compound that is named as a salt.

Assays:
Type in all cases: in vivo, human
[1] = test system: Male androgenic alopecia; assay: Clinical pilot study of topical sodium sucrose sulfate in alopecia: male androgenic alopecia; set-up: key to clinical effect: very good in cases of definite cosmetic benefit; good in cases of significant regrowth of new hair, but not to an extend that is cosmetically apparent at distance; no effect in cases of no or only marginal regrowth of hair; details: for clinical effect: 4 patients; for Clinical effect Good (number of patients) / Clinical effect No effect (number of patients) / Clinical effect Very good (number of patients): 3% solution topically morning and evening, about 3 to 9 months
Procedure: During a 11 month period (April 1989 to March 1990), a total of 50 patients participated in a pilot study, evaluating the effect of the sodium salt of sucrose sulfate administered topically for the treatment of alopecia. The test preparation was a 3% solution of Na-sucrose sulfate in a vehicle of 50% water/25% ethanol/25% propylene glycol (w/w), dispensed in 35 ml bottles with a sponge for topical administration on the scalp. The test preparation was applied morning and evening on the scalp, preferably on areas of partial or total alopecia. In average the patients have been using one bottle per month. All patients were recruited by one dermatologist, and the effect of treatment was evaluated clinically by the same investigator, at monthly clinic visits. The clinical effect was classified as very good in cases of definite cosmetic benefit, as good in cases of significant regrowth of new hair, but not to an extend that is cosmetically apparent at distance, and as no effect in cases of no or only marginal regrowth of hair. Male androgenic alopecia was the clinical diagnosis in 35 patients, their age ranging from 17 years to 50 years. Period of treatment was about 3 months in 15 case, about 6 months in 10 cases, and about 9 months in 10 cases.

[2] = test system: subtotal or total alopecia, with underlying atopic dermatitis; assay: Clinical pilot study of topical sodium sucrose sulfate in alopecia: subtotal or total alopecia; details: 3% solution topically
Procedure: (§1) During a 11 month period (April 1989 to March 1990), a total of 50 patients participated in a pilot study, evaluating the effect of the sodium salt of sucrose sulfate administered topically for the treatment of alopecia.
(§2) The test preparation was a 3% solution of Na-sucrose sulfate in a vehicle of 50% water/25% ethanol/25% propylene glycol (w/w), dispensed in 35 ml bottles with a sponge for topical administration on the scalp. The test preparation was applied morning and evening on the scalp, preferably on areas of partial or total alopecia. In average the patients have been using one bottle per month.
(§3) All patients were recruited by one dermatologist, and the effect of treatment was evaluated clinically by the same investigator, at monthly clinic visits.
(§4) The clinical effect was classified as very good in cases of definite cosmetic benefit, as good in cases of significant regrowth of new hair, but not to an extend that is cosmetically apparent at distance, and as no effect in cases of no or only marginal regrowth of hair.
2 Patients suffered from subtotal or total alopecia, with underlying atopic dermatitis.

[3] = test system: Ludwig type alopecia; assay: Clinical pilot study of topical sodium sucrose sulfate in alopecia: Ludwig type alopecia in females; details: 5 females aged 20-49 years, treated 6-8 months, 3% solution topically
Procedure: as §2, §3, §4
5 Females aged from 20-49 years with Ludwig type alopecia were treated with the test drug for 6-8 months.

[4] = test system: alopecia areata; assay: Clinical pilot study of topical sodium sucrose sulfate in alopecia: alopecia areata; set-up: key: very good in cases of definite cosmetic benefit; good in cases of significant regrowth of new hair, but not to an extend that is cosmetically apparent at distance; no effect in cases of no or only marginal regrowth of hair; details: 5 female patients aged 39 to 46 years, treated 2 to 9 months, 3% solution topically
Procedure: as §1, §2, §3, §4
5 Female patients with alopecia areata aged from 39 years to 46 years were treated for periods from 2 to 9 months, the treatment showing a very good effect.

[5] = test system: very bad hair condition and underlying psoriasis; assay: Clinical pilot study of topical sodium sucrose sulfate in alopecia: bad hair condition with psoriasis; set-up: key: very good in cases of definite cosmetic benefit; good in cases of significant regrowth of new hair, but not to an extend that is cosmetically apparent at distance; no effect in cases of no or only marginal regrowth of hair; details: one person, treated for 9 months, 3% solution topically
Procedure: as §1, §2, §3, §4
One person with very bad hair condition and underlying psoriasis was treated for 9 months and a very good effect on the test drug was obtained.

[6] = test system: underlying discoid LE; assay: Clinical pilot study of topical sodium sucrose sulfate in alopecia: underlying discoid LE; set-up: key: very good in cases of definite cosmetic benefit; good in cases of significant regrowth of new hair, but not to an extend that is cosmetically apparent at distance; no effect in cases of no or only marginal regrowth of hair; details: 2 female patients, treated 2 and 4 months; regrowth except for the very center of the lesion
Procedure: as §1, §2, §3, §4
2 female patients with underlying discoid LE were successfully treated for 2 and 4 months, respectively, with a very good effect comprising regrowth of hair except for the very center of the lesion.

[7] = test system: hair loss secondary to anti-cancer treatment; assay: Pilot study of sodium sucrose sulfate, prophylactic and therapeutic, in hair loss secondary to anti-cancer treatment
Excerpt: The test preparation containing sodium sucrose sulfate from Example 11 was used both prophylactically and therapeutically in a few patients undergoing radiation and/or cytostatic anti-cancer treatment. One person started the treatment with the test preparation immediately after the anti-cancer treatment was instituted, applying the test preparation twice daily on eyebrows and eyelashes on the right side, and the left side served as untreated control. The treatment lasted four weeks. […] Another four females - also on anti-cancer treatment - used the test preparation twice daily, topically on the scalp after the hair was lost.

[8] = test system: common male-pattern baldness; assay: Treatment with sucralfate cream of common male-pattern baldness (single case, Example 14); details: 10% w/w sucralfate preparation, two daily topical applications, person, after 3-4 weeks
Excerpt: At the beginning, a "plume" appeared in the area, and after a few days the "plume" began turning into real hairs and 8 days after, there were dozens of real hairs which were indistinguishable from other hairs of the scalp, apart from being shorter and all coloured in the original colour of the hair, in contrast to the existing hair, which was partially greyed.

[9] = test system: Male androgenic alopecia; assay: Clinical pilot study of topical micronized sucralfate in alopecia: male androgenic alopecia
Excerpt: (§5) A composition containing micronized sucralfate (<5 µm, Giulini Chemie, Germany) 5%, ethanol 25%, propylene glycol 25%, and distilled water 45%, was used in two daily applications on the scalp, the composition being dispensed in a bottle with sponge applicator. The average consumption of the test preparation in individual patients was about one bottle per month. […] The effects were lasting after stopping the treatment for about 4 months.

[10] = test system: total alopecia; assay: Clinical pilot study of topical micronized sucralfate in alopecia: total alopecia; details: one patient, total alopecia for 20 years, 5% micronized sucralfate twice daily for 6 weeks
Excerpt: as §5

[11] = age group 17-25 years, 20 patients
[12] = age group 25-40 years, 10 patients
[13] = age group >40 years, 5 patients

Compound: O=S(=O)(O)OC[C@H]1O[C@@](COS(=O)(=O)O)(O[C@H]2O[C@H](COS(=O)(=O)O)[C@@H](OS(=O)(=O)O)[C@H](OS(=O)(=O)O)[C@H]2OS(=O)(=O)O)[C@@H](OS(=O)(=O)O)[C@@H]1OS(=O)(=O)O [sodium sucrose sulfate, Sodium sucrose octasulfate]
- clinical effect ([1]; age group 17-25, previously failed on minoxidil, 3% solution topically): no effect
- clinical effect ([1]; age group 25-40, previously failed on minoxidil, 3% solution topically): good
- Clinical effect Good (number of patients) [1, 11]: 8
- Clinical effect No effect (number of patients) [1, 11]: 4
- Clinical effect Very good (number of patients) [1, 11]: 8
- Clinical effect Good (number of patients) [1, 12]: 2
- Clinical effect No effect (number of patients) [1, 12]: 2
- Clinical effect Very good (number of patients) [1, 12]: 4
- Clinical effect Good (number of patients) [1, 13]: 2
- Clinical effect No effect (number of patients) [1, 13]: 2
- time of treatment until hair-growing effect apparent ([1]; patients responding to the treatment, whole pilot study, typical value): ~1 month
- effect in comparison to topically applied minoxidil (Regain®) ([1]; whole pilot study, 3% solution topically): markedly better effect
- effect of treatment ([2]; person with 2-3 years of alopecia, treatment for 8 months): only little effect
- regrowth of hair ([2]; person, bald for 20 years, treatment for 10 months): complete regrowth of hair
- number of patients with good effect [3]: 3 patients
- number of patients with only a marginal effect [3]: 2 patients
- clinical effect [4]: very good
- clinical effect [5]: very good
- clinical effect [6]: very good
- regrowth of hair after loss ([7]; four females on anti-cancer treatment, twice daily topically on the scalp after the hair was lost): much faster regrowth of hair than normally
- prevention of loss of eyebrows and eyelashes ([7]; one on anti-cancer treatment, twice daily on right side for four weeks, left side untreated control (lost)): eyebrows and eyelashes remained

Compound: sucrose octakis(hydrogen sulfate) aluminium complex [sucralfate]
- appearance of hair [8]: appearance of hair in the otherwise bald lateral-frontal areas
- regrowth of hair ([9]; one person, Hamilton grade 3, 5% micronized sucralfate twice daily for two months): dense regrowth of small terminal hairs
- duration of effects after stopping the treatment ([9]; one person, Hamilton grade 3, after two months of treatment): about 4 months
- regrowth of hair ([9]; six male patients aged 30 to 48 years, Hamilton grade 3 and 4, 5% micronized sucralfate twice daily for 3 to 6 months, all six cases): definite regrowth of terminal hairs
- time of treatment until effect seen ([9]; six male patients, Hamilton grade 3 and 4, typical value): 6-8 weeks
- regrowth of hair [10]: dense regrowth of fine short terminal hairs all over the scalp
